According to patent US8158828B2, “Nuclear receptor binding agents” (priority 2005, dated 2012):
pEC50, pIC50: −log10 of the molar value. Read-outs that look alike come from different tables or passages of the source. Each block holds one molecule with its values, some of them ahead of it.

Columns and labels:
ER-α = biological target: T1, ER-α (Rattus norvegicus, UniProt P06211); experiment: ER-α transactivation, ERE-LUC in COS or 293 cells; type: cell-based; design: % estardiol activity, ER-α: dose or concentration left out as unconfirmed; details: for pEC50: ER alpha agonists; for pIC50: ER alpha antagonists
T1 sequence (P06211 1-600): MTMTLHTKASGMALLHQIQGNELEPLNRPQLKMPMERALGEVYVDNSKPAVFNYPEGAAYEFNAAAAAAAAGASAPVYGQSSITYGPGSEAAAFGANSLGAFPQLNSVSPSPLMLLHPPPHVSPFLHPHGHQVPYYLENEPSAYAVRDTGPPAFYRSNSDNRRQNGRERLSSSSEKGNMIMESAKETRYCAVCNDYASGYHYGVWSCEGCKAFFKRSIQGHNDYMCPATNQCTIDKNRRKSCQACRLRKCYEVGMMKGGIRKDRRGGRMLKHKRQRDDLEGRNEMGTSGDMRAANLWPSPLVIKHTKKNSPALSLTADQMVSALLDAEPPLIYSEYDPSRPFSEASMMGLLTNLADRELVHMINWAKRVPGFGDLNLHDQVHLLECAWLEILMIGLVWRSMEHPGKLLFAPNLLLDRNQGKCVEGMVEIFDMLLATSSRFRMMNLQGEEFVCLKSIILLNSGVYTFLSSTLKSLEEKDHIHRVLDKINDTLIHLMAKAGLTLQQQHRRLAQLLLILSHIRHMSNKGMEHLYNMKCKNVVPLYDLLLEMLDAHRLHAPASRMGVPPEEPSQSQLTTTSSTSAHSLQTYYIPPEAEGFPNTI
Method: FIG. 1: Effects of the indicated compounds on ER-α transactivation. COS or 293 cells plated in DME without phenol red+10% charcoal stripped fetal bovine serum (csFBS) at 90,000 cells per well of 24 well plates were transfected with 0.25 μg ERE-LUC, 0.02 μg CMV-LUC (Renilla) and 25 ng of ER-α by lipofectamine. Twenty four hours after transfection, the cells were treated as indicated in the figure, harvested 48 hrs after transfection and were assayed for firefly and renilla luciferase.
(§1) FIG. 5: Effect of the indicated compounds on ER-α transactivation. COS or 293 cells plated in DME without phenol red+10% csFBS at 90,000 cells per well of a 24 well plate were transfected with 0.25 μg ERE-LUC, 0.02 μg CMV-LUC (Renilla) and 5 ng of ER-α by lipofectamine. Twenty four hours after transfection, the cells were treated as indicated in the figure, harvested 48 hrs after transfection and were assayed for firefly and renilla luciferase.
as §1, with “FIG. 9:” for “FIG. 5:”, “csFBS” for “csFBS at 90,000 cells”, “and 25” for “and 5”
Also 25 ng of ER-α (FIGS. 1, 5, and 9), 50 ng of ER-β (FIGS. 2, 6 and 10) or 12.5 ng of AR (FIG. 3) were introduced by lipofectamine. All the receptors were cloned from rat tissue into the PCR3.1 vector backbone. […] Cells were harvested 48 hrs after transfection, and assayed for firefly and Renilla luciferase activity.
Also 25 ng of ER-α), 50 ng of ER-β or 12.5 ng of AR were introduced by lipofectamine. All the receptors were cloned from rat tissue into the PCR3.1 vector backbone. […] Cells were harvested 48 hrs after transfection, and assayed for firefly and Renilla luciferase activity.

ER-β = biological target: T2, ER-β (Rattus norvegicus, UniProt Q62986); experiment: ER-β transactivation, ERE-LUC in COS or 293 cells; type: cell-based; design: % estardiol activity, ER-β: dose or concentration left out as unconfirmed; details: for ER-β LUC expression, compound alone: COS or 293 cells
T2 construct: expressed in transfected cells; host or cells: COS or 293 cells
Method: as §1, with “FIG. 2:” for “FIG. 5:”, “on ER-β” for “on ER-α”, “and 50” for “and 5”, “of ER-β” for “of ER-α”
as §1, with “FIG. 6:” for “FIG. 5:”, “on ER-β” for “on ER-α”, “and 50” for “and 5”, “of ER-β” for “of ER-α”, “and” for “and were”
as §1, with “FIG. 10:” for “FIG. 5:”, “on ER-β” for “on ER-α”, “in DME+10%” for “in DME without phenol red+10%”, “and 50” for “and 5”, “of ER-β” for “of ER-α”
(§2) All the receptors were cloned from rat tissue into the PCR3.1 vector backbone. […] Cells were harvested 48 hrs after transfection, and assayed for firefly and Renilla luciferase activity.
as §2

[1] = ER beta agonists, read-out: EC50 (ER-β)

T2 sequence (Q62986 whole entry): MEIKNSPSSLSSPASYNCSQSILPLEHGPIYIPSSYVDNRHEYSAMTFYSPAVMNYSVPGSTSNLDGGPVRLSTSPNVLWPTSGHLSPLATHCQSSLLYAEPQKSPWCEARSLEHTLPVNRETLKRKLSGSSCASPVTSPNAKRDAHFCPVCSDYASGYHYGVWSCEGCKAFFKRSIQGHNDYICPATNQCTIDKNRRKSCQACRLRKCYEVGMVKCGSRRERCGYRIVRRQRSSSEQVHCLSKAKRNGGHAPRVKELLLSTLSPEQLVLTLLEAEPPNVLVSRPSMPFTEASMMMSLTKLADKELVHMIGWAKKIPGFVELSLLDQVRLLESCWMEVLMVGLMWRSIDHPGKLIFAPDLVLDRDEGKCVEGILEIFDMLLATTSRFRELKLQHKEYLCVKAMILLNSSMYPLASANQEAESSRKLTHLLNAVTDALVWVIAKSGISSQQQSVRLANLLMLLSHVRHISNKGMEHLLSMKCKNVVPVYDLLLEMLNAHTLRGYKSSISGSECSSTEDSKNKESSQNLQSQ

Structure (SMILES): O=C(c1cccc(O)c1)N(c1ccc(O)cc1)c1ccc(O)cc1 [Compound 3b, 3-hydroxy-N-bis-(4-hydroxyphenyl)-benzamide]
pEC50 (ER-α): 8.00

Structure (SMILES): O=C(c1ccccc1)N(c1ccccc1)c1ccc(O)cc1 [Compound 3g, N-(4-hydroxyphenyl)-N-phenyl-benzamide]
ER-β LUC expression, compound alone (ER-β): most potent in stimulating ER-β
% estardiol activity, ER-α (ER-α): 62.5%

Structure (SMILES): O=C(c1ccc(O)cc1)N(c1ccccc1)c1ccc(O)cc1 [Compound 3i, 4-hydroxy-N-(4-hydroxyphenyl)-N-phenyl-benzamide]
ER-β LUC expression, compound alone (ER-β): most potent in stimulating ER-β
% estardiol activity, ER-α (ER-α): 77.8%
ER-α activity (luciferase expression), compound alone (ER-α; COS or 293 cells): most potent in stimulating ER-α

Structure (SMILES): O=C(c1ccc(O)cc1)N(c1ccccc1)c1cccc(O)c1 [Compound 3j, 4-hydroxy-N-(3-hydroxyphenyl)-N-phenyl-benzamide]
% estardiol activity, ER-α (ER-α): 62%

Structure (SMILES): O=C(c1ccc(O)cc1)N(c1ccc(O)cc1)c1ccc(-c2ccccc2)cc1 [Compound 3v, N-biphenyl-4-yl-4-hydroxy-N-(4-hydroxyphenyl)-benzamide]
pEC50 (ER-α): 7.65

Structure (SMILES): Cl.O=C(c1cccc(OCCN2CCCCC2)c1)N(c1ccccc1)c1ccccc1 [Compound 4d, N,N-diphenyl-[3-(2-piperidinylethoxy)]-benzamide hydrochloride]
% estardiol activity, ER-β (ER-β): 30.7%
% estardiol activity, ER-α (ER-α): 16.8%

Structure (SMILES): Cc1ccc(C(=O)N(c2ccc(O)cc2)c2ccc(O)cc2)cc1C [Compound 10d, N,N-bis(4-hydroxyphenyl)-3,4-dimethylbenzamide]
pEC50 (ER-β; [1]): 7.07
% estardiol activity, ER-α (ER-α): 21.4%

Structure (SMILES): O=C(c1ccc(O)c(F)c1)N(c1ccccc1)c1ccc(O)cc1 [Compound 10f, 3-fluoro-4-hydroxy-N-(4-hydroxyphenyl)-N-phenylbenzamide]
pEC50 (ER-β): 7.38
% estardiol activity, ER-α (ER-α): 85%

Structure (SMILES): Cc1cccc(C(=O)N(c2ccc(O)cc2)c2ccc(O)cc2)c1C [Compound 10j, N,N-bis(4-hydroxyphenyl)-2,3-dimethylbenzamide]
pIC50 (ER-β): 7.70

Structure (SMILES): O=C(c1ccc(O)c(O)c1)N(c1ccc(O)cc1)c1ccc(O)cc1 [Compound 10m, 3,4-dihydroxy-N,N-bis(4-hydroxyphenyl)-benzamide]
pIC50 (ER-α): > 8.00

Structure (SMILES): Cc1cccc(CN(c2ccc(O)cc2)c2ccc(O)cc2)c1C [Compound 10t, 4,4′-(2,3-dimethyl-benzylazanediyl)diphenol]
pIC50 (ER-β): 7.77

Now from value to molecule, other results behind:

pIC50 (ER-β; ER beta antagonist, read-out: IC50 (ER-β)): 7.33
Structure (SMILES): Cc1cc(C(=O)N(c2ccc(O)cc2)c2ccc(O)cc2)ccc1O [Compound 10n, 4-hydroxy-N,N-bis(4-hydroxyphenyl)-3-methylbenzamide]

% estardiol activity, ER-α (ER-α): 12%
Structure (SMILES): CCCc1ccc(C(=O)N(c2ccc(O)cc2)c2ccc(OCCN3CCCCC3)cc2)cc1 [Compound 10o, N-(4-hydroxyphenyl)-N-(4-(2-(piperidin-1-yl)ethoxy)phenyl)-4-propylbenzamide]
inhibition of estradiol (E2) induced ER-α activity (luciferase expression) (ER-α; COS or 293 cells, with estrogen): inhibited estrogen stimulated luciferase expression

% estardiol activity, ER-α (ER-α): 21.9%
Structure (SMILES): O=C(c1ccc(O)cc1)N(c1ccc(O)cc1)C1CCCCC1 [Compound 10w, N-cyclohexyl-4-hydroxy-N-(4-hydroxyphenyl)benzamide]

pEC50 (ER-α): 7.80
Structure (SMILES): Oc1ccc(CN(c2ccc(O)cc2)c2ccc(F)cc2)cc1 [Compound 10x, 4-((4-fluorophenyl)(4-hydroxybenzyl)amino)phenol]

pIC50 (ER-α): 7.16
Structure (SMILES): O=C(c1cccc2ccccc12)N(c1ccc(O)cc1)c1ccc(OCCN2CCCCC2)cc1 [Compound 11f, N-(4-hydroxyphenyl)-N-(4-(2-(piperidin-1-yl)ethoxy)phenyl)-1-naphthamide]

pIC50 (ER-α): 7.80
Structure (SMILES): O=C(c1cccc(F)c1)N(c1ccc(O)cc1)c1ccc(OCCN2CCCCC2)cc1 [Compound 11g, 3-fluoro-N-(4-hydroxyphenyl)-N-(4-(2-(piperidin-1-yl)ethoxy)phenyl)benzamide]

pEC50 (ER-β; [1]): > 8.00
Structure (SMILES): CCCCCc1ccc(C(=O)N(c2ccc(O)cc2)c2ccc(O)cc2)cc1 [Compound 11p, N,N-bis(4-hydroxyphenyl)-4-pentylbenzamide]
